Measurements taken from PubChem BioAssay AID210 (DTP/NCI, 2004).
“And” between values parts separate entries of the source, which are not always exact repeats. Equal values may be shown once. Inconclusive results and toxic doses are left out.

Test system: CD2F1 mice, ip Colon 26 adenocarcinoma, median survival T/C
Assay: NCI In Vivo Anticancer Drug Screen. Data for tumor model Colon 26 Adenocarcinoma (intraperitoneal) in CD2F1 (CDF1) mice
Conditions: endpoint: median survival time, higher = longer survival
Procedure: The antitumor activity of compounds was measured in mice bearing transplantable tumors. Survival or tumor size were measured and the results are expressed as the measurement made in the treated group (T) divided by the measurement made in the vehicle treated control group (C). The tumor model used in this assay is Colon 26 Adenocarcinoma (intraperitoneal) in CD2F1 (CDF1) mice

[1] = dose: 12.5 mg/kg/injection, schedule: Q04DX003 (ip), vehicle: saline with Tween-80
[2] = dose: 25.0 mg/kg/injection, schedule: Q04DX003 (ip), vehicle: saline with Tween-80
[3] = dose: 50.0 mg/kg/injection, schedule: Q04DX003 (ip), vehicle: saline with Tween-80
[4] = dose: 100.0 mg/kg/injection, schedule: Q04DX003 (ip), vehicle: saline with Tween-80
[5] = dose: 200.0 mg/kg/injection, schedule: Q04DX003 (ip), vehicle: saline with Tween-80
[6] = dose: 400.0 mg/kg/injection, schedule: Q04DX003 (ip), vehicle: saline with Tween-80
[7] = dose: 25.0 mg/kg/injection, schedule: Q04DX003 (ip), vehicle: saline
[8] = dose: 50.0 mg/kg/injection, schedule: Q04DX003 (ip), vehicle: saline

CCCCCCCCCCCCCCCCS(=O)CC(O)COC(=O)c1ccc(C(=O)OCC(O)CS(=O)CCCCCCCCCCCCCCCC)cc1 (centres undefined)
T/C (dose: 12.5 mg/kg/injection, schedule: Q04DX002 (ip), vehicle: saline + alcohol): 109 % of control
T/C (dose: 25.0 mg/kg/injection, schedule: Q04DX002 (ip), vehicle: saline + alcohol): 100 % of control
T/C (dose: 50.0 mg/kg/injection, schedule: Q04DX002 (ip), vehicle: saline + alcohol): 91 % of control
T/C (dose: 100.0 mg/kg/injection, schedule: Q04DX002 (ip), vehicle: saline + alcohol): 91 % of control

CSC1SCC2C(=O)N(C)C(C(C)C)C(=O)OCC(NC(=O)c3cnc4ccccc4n3)C(=O)NC(C)C(=O)N(C)C1C(=O)N(C)C(C(C)C)C(=O)OCC(NC(=O)c1cnc3ccccc3n1)C(=O)NC(C)C(=O)N2C (centres undefined)
T/C (dose: 25.0 micrograms/kg/injection, schedule: Q01DX004 (ip), vehicle: saline sonified): 87 % of control
T/C (dose: 100.0 micrograms/kg/injection, schedule: Q01DX004 (ip), vehicle: saline sonified): 86 % of control
T/C (dose: 100.0 micrograms/kg/injection, schedule: Q03DX002 (ip), vehicle: saline sonified): 94 % of control
T/C (dose: 150.0 micrograms/kg/injection, schedule: Q03DX002 (ip), vehicle: saline sonified): 90 % of control

Cc1ccc(NC(=O)Oc2ccc(Br)cc2Br)c([N+](=O)[O-])c1
T/C [1]: 97 % of control
T/C [2]: 100 % of control
T/C [3]: 100 % of control
T/C [4]: 107 % of control
T/C [5]: 117 % of control
T/C [6]: 123 % of control

O=Cc1ccc(C(Cl)(Cl)Cl)cc1
T/C [1]: 103 % of control and 107 % of control
T/C [2]: 106 % of control and 109 % of control
T/C [3]: 114 % of control and 98 % of control
T/C [4]: 96 % of control
T/C [5]: 98 % of control
T/C [6]: 103 % of control

CCN(CC)CCNc1ccc(C)c2sc3ccccc3c(=O)c12
T/C (dose: 25.0 mg/kg/injection, schedule: Q04DX002 (ip), vehicle: suspension in saline): 102 % of control
T/C (dose: 50.0 mg/kg/injection, schedule: Q04DX002 (ip), vehicle: suspension in saline): 105 % of control
T/C (dose: 100.0 mg/kg/injection, schedule: Q04DX002 (ip), vehicle: suspension in saline): 103 % of control
T/C (dose: 200.0 mg/kg/injection, schedule: Q04DX002 (ip), vehicle: suspension in saline): 119 % of control

CCOC(=O)c1ccc(NC(=O)Nc2nccs2)cc1
T/C (dose: 12.5 mg/kg/injection, schedule: Q04DX002 (ip), vehicle: saline with Tween-80): 97 % of control
T/C (dose: 25.0 mg/kg/injection, schedule: Q04DX002 (ip), vehicle: saline with Tween-80): 105 % of control
T/C (dose: 50.0 mg/kg/injection, schedule: Q04DX002 (ip), vehicle: saline with Tween-80): 95 % of control
T/C (dose: 100.0 mg/kg/injection, schedule: Q04DX002 (ip), vehicle: saline with Tween-80): 106 % of control
T/C (dose: 200.0 mg/kg/injection, schedule: Q04DX002 (ip), vehicle: saline with Tween-80): 102 % of control
T/C (dose: 400.0 mg/kg/injection, schedule: Q04DX002 (ip), vehicle: saline with Tween-80): 110 % of control

N=c1ccn2c(n1)OC1C(O)C(CO)OC12 (centres undefined)
T/C (dose: 111.0 mg/kg/injection, schedule: Q01DX009 (ip), vehicle: saline with Tween-80): 110 % of control
T/C (dose: 167.0 mg/kg/injection, schedule: Q01DX009 (ip), vehicle: saline with Tween-80): 115 % of control
T/C (dose: 250.0 mg/kg/injection, schedule: Q01DX009 (ip), vehicle: saline with Tween-80): 121 % of control

CCOC(=O)c1c[nH]c2oc(/C=N/N3CC(CN4CCOCC4)OC3=O)cc2c1=O (centres undefined)
T/C (dose: 12.5 mg/kg/injection, schedule: Q04DX003 (ip), vehicle: suspension in saline): 97 % of control
T/C (dose: 25.0 mg/kg/injection, schedule: Q04DX003 (ip), vehicle: suspension in saline): 90 % of control
T/C (dose: 50.0 mg/kg/injection, schedule: Q04DX003 (ip), vehicle: suspension in saline): 96 % of control
T/C (dose: 100.0 mg/kg/injection, schedule: Q04DX003 (ip), vehicle: suspension in saline): 90 % of control
T/C (dose: 200.0 mg/kg/injection, schedule: Q04DX003 (ip), vehicle: suspension in saline): 101 % of control
T/C (dose: 400.0 mg/kg/injection, schedule: Q04DX003 (ip), vehicle: suspension in saline): 101 % of control

C1OC1CN1CCN(CC2CO2)CC1 (centres undefined)
T/C (dose: 3.12 mg/kg/injection, schedule: Q04DX003 (ip), vehicle: saline): 112 % of control and 98 % of control
T/C (dose: 6.25 mg/kg/injection, schedule: Q04DX003 (ip), vehicle: saline): 108 % of control and 120 % of control
T/C [7]: 167 % of control
T/C [8]: 175 % of control and 193 % of control

CC(C)NC(=O)OCc1c(COC(=O)NC(C)C)c(-c2ccc(Cl)c(Cl)c2)n2c1CCC2
T/C (dose: 2.5 mg/kg/injection, schedule: Q01DX009 (ip), vehicle: distilled water + Tween-80): 173 % of control
T/C (dose: 5.0 mg/kg/injection, schedule: Q01DX009 (ip), vehicle: distilled water + Tween-80): 162 % of control
T/C (dose: 10.0 mg/kg/injection, schedule: Q01DX009 (ip), vehicle: distilled water + Tween-80): 232 % of control
T/C (dose: 20.0 mg/kg/injection, schedule: Q01DX009 (ip), vehicle: distilled water + Tween-80): 289 % of control
T/C (dose: 40.0 mg/kg/injection, schedule: Q01DX009 (ip), vehicle: distilled water + Tween-80): 163 % of control

C=C(C)[C@]12CC(C)C34OC(/C=C\C=C\CCCCCCCCC)(O[C@@H]1[C@@H]3[C@@H]1O[C@]1(CO)[C@@H](O)[C@]1(O)C(=O)C(C)=C[C@@H]41)O2 (some centres undefined)
T/C (dose: 0.18 mg/kg/injection, schedule: Q04DX003 (ip), vehicle: distilled water + alcohol): 102 % of control
T/C (dose: 0.37 mg/kg/injection, schedule: Q04DX003 (ip), vehicle: distilled water + alcohol): 105 % of control
T/C (dose: 0.75 mg/kg/injection, schedule: Q04DX003 (ip), vehicle: distilled water + alcohol): 114 % of control

O=C1NC(O)CCN1C1OC(CO)C(O)C1O (centres undefined)
T/C [8]: 101 % of control
T/C (dose: 100.0 mg/kg/injection, schedule: Q04DX003 (ip), vehicle: saline): 101 % of control
T/C (dose: 200.0 mg/kg/injection, schedule: Q04DX003 (ip), vehicle: saline): 98 % of control
T/C (dose: 400.0 mg/kg/injection, schedule: Q04DX003 (ip), vehicle: saline): 100 % of control
T/C (dose: 800.0 mg/kg/injection, schedule: Q04DX003 (ip), vehicle: saline): 108 % of control

CCOC(C)C(/C=N/NC(N)=S)=NNC(N)=S (centres undefined)
T/C [1]: 98 % of control
T/C (dose: 12.5 mg/kg/injection, schedule: Q04DX003 (ip), vehicle: saline): 104 % of control
T/C [2]: 98 % of control
T/C [7]: 93 % of control
T/C [3]: 100 % of control
T/C [8]: 113 % of control
T/C [4]: 99 % of control
T/C [5]: 97 % of control
T/C [6]: 97 % of control

CC[N+](CC)(CC)CC
T/C (dose: 1.56 mg/kg/injection, schedule: Q04DX003 (ip), vehicle: saline with Tween-80): 114 % of control
T/C (dose: 3.12 mg/kg/injection, schedule: Q04DX003 (ip), vehicle: saline with Tween-80): 107 % of control and 113 % of control
T/C (dose: 6.25 mg/kg/injection, schedule: Q04DX003 (ip), vehicle: saline with Tween-80): 111 % of control
T/C [1]: 175 % of control
T/C (dose: 12.5 mg/kg/injection, schedule: Q04DX003 (oral), vehicle: saline with Tween-80): 109 % of control
T/C (dose: 25.0 mg/kg/injection, schedule: Q04DX003 (oral), vehicle: saline with Tween-80): 105 % of control
T/C (dose: 50.0 mg/kg/injection, schedule: Q04DX003 (oral), vehicle: saline with Tween-80): 104 % of control
T/C (dose: 100.0 mg/kg/injection, schedule: Q04DX003 (oral), vehicle: saline with Tween-80): 94 % of control

CO[C@H]1C[C@@H]2CC[C@@H](C)[C@@](O)(O2)C(=O)C(=O)N2CCCC[C@H]2C(=O)O[C@H]([C@H](C)C[C@@H]2CC[C@@H](O)[C@H](OC)C2)CC(=O)[C@H](C)C=C(C)[C@@H](O)[C@@H](OC)C(=O)[C@H](C)C[C@H](C)/C=C/C=C/C=C1C
T/C [1]: 104 % of control
T/C [2]: 118 % of control
T/C [3]: 116 % of control
T/C [4]: 105 % of control
T/C [5]: 96 % of control

CNc1nc2c(N)ncnc2n1C1OC(CO)C(O)C1O (centres undefined)
T/C (dose: 0.78 mg/kg/injection, schedule: Q04DX002 (ip), vehicle: saline): 92 % of control
T/C (dose: 1.56 mg/kg/injection, schedule: Q04DX002 (ip), vehicle: saline): 93 % of control
T/C (dose: 3.13 mg/kg/injection, schedule: Q04DX002 (ip), vehicle: saline): 92 % of control
T/C (dose: 6.25 mg/kg/injection, schedule: Q04DX002 (ip), vehicle: saline): 96 % of control
T/C (dose: 12.5 mg/kg/injection, schedule: Q04DX002 (ip), vehicle: saline): 102 % of control
T/C (dose: 25.0 mg/kg/injection, schedule: Q04DX002 (ip), vehicle: saline): 96 % of control
